Data: ChEMBL document CHEMBL3259612, “Design, synthesis, docking and anti-inflammatory evaluation of novel series of benzofuran based prodrugs” (Bioorg Med Chem Lett, 2014)

What was measured:
Rattus norvegicus [1] = test: Antiinflammatory activity in Wistar albino rat assessed as inhibition of carrageenan-induced increase in paw edema at 10 mg/kg, po after 30 mins (reference value: 30.1 %); type: functional; set-up: scale not given: the % may be the effect or the level left
Rattus norvegicus [2] = test: Antiinflammatory activity in Wistar albino rat assessed as inhibition of carrageenan-induced increase in paw edema at 10 mg/kg, po after 90 mins (reference value: 38.7 %); type: functional; set-up: scale not given: the % may be the effect or the level left
[3] = molecular target: T1, Prostaglandin G/H synthase 1 (Rattus norvegicus, UniProt Q63921); test: Inhibition of rat seminal vesicle COX-1 using arachidonic acid as substrate assessed as reduction of PGG2 to PGH2 incubated for 1 min prior to substrate addition measured after 25 secs by chromogenic assay
T1 sequence (Q63921 whole entry): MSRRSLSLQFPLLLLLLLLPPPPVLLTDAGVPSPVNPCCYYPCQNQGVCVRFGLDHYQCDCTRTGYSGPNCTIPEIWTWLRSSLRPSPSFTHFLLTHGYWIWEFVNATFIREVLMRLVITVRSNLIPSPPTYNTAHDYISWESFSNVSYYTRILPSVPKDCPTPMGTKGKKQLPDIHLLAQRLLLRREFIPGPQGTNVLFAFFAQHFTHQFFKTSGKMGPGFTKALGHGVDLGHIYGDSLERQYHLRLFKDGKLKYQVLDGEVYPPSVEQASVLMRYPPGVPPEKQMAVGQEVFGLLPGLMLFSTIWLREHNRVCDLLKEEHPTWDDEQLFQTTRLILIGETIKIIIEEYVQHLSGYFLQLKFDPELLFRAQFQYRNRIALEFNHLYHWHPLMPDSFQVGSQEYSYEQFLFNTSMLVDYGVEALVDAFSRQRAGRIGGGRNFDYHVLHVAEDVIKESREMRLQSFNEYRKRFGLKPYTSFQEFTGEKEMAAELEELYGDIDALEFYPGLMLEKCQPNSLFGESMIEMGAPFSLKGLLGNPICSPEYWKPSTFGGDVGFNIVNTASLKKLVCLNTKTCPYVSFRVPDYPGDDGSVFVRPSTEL

[4] = molecular target: T2, Prostaglandin G/H synthase 2 (Homo sapiens, UniProt P35354); test: Inhibition of human recombinant COX-2 expressed in insect cell system using arachidonic acid as substrate assessed as reduction of PGG2 to PGH2 incubated for 1 min prior to substrate addition measured after 25 secs by chromogenic assay
T2 sequence (P35354 whole entry): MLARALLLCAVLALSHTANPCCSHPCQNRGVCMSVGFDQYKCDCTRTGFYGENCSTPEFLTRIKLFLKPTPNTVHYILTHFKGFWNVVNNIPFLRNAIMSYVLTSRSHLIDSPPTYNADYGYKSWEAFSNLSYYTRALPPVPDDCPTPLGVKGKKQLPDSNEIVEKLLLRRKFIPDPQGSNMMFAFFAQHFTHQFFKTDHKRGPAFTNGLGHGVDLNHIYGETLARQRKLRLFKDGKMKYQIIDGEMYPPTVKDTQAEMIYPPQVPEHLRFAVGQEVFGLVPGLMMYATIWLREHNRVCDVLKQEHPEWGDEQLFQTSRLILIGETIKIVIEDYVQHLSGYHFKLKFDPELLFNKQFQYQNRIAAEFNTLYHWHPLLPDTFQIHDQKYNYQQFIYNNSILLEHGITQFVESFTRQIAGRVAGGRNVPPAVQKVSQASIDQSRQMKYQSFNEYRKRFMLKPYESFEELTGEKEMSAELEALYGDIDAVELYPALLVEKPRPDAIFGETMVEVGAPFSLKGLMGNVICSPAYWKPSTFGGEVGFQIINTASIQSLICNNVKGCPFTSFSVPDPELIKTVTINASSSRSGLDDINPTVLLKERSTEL

[5] = Selectivity index, ratio of IC50 for human recombinant COX-2 to IC50 for rat seminal vesicle COX-1; type: tissue-based

Row | Compound | Activity (Rattus norvegicus [1]) | Activity (Rattus norvegicus [2]) | IC50 [3] | IC50 [4] | Ratio IC50 [5]
1 | CCOC(=O)c1c(-c2ccccc2)oc2ccc(Oc3ccccc3C)cc12 | 14.8% | 24.4% | 29.8 µM | 20.1 µM | 0.67
2 | CCOC(=O)c1c(C)oc2ccc(Oc3ccc4ccccc4c3)cc12 |  |  | 47.5 µM | 15.8 µM | 0.35
3 | CCOC(=O)c1c(C)oc2ccc(Oc3ccccc3C)cc12 | 10.1% | 20.4% | 35.8 µM | 6.1 µM | 0.17
4 | CCOC(=O)c1c(C)oc2ccc(Oc3ccc(C)cc3)cc12 | 14.1% | 25.8% | 49.7 µM | 4.2 µM | 0.08
5 | CCOC(=O)c1c(-c2ccccc2)oc2ccc(Oc3ccc(C)cc3)cc12 | 22.1% | 32.6% | 26.2 µM | 19.2 µM | 0.74
6 | CCOC(=O)c1c(-c2ccccc2)oc2ccc(Oc3ccc4ccccc4c3)cc12 | 20.1% | 32.6% |  |  | 
7 | CS(=O)(=O)Nc1ccc([N+](=O)[O-])cc1Oc1ccccc1 [NIMESULIDE] | 14.1% | 23.4% |  |  | 
8 | CCOC(=O)c1c(-c2ccccc2)oc2ccc(Oc3ccccn3)cc12 | 25.1% | 32.6% |  |  | 
9 | CCOC(=O)c1c(-c2ccccc2)oc2ccc(Oc3ccccc3)cc12 | 15.8% | 28.4% | 42.5 µM | 18.2 µM | 0.43
10 | CCOC(=O)c1c(C)oc2ccc(Oc3ccccc3)cc12 | 15.7% | 23.8% | 30.8 µM | 18.5 µM | 0.59
11 | CCOC(=O)c1c(C)oc2ccc(Oc3ccc(OC)cc3)cc12 | 9.5% | 12.3% | 38.1 µM | 8.6 µM | 0.23
12 | CCOC(=O)c1c(C)oc2ccc(Oc3ccccn3)cc12 |  | 18.9% | 27.9 µM | 8.1 µM | 0.29
